Assays:
Assay type in all cases: in vivo
Erysiphe cichoracearum = test: Powdery mildew of cucumber (ERYSCI) disease control; conditions: Golovinomyces cichoracearum, 24 h, 1 Day Protectant, read-out: ERYSCI disease control rating
Method: Technical grades of materials were dissolved in acetone, which were then mixed with nine volumes of water containing 110 ppm Triton X-100. The fungicide solutions were applied onto wheat seedlings using an automated booth sprayer to run-off. All sprayed plants were allowed to air dry prior to further handling. All fungicides were evaluated using the aforementioned method for their activity vs. all target diseases. Wheat leaf blotch and brown rust activity were also evaluated using track spray applications, in which case the fungicides were formulated as EC formulations, containing 0.1% Trycol 5941 in the spray solutions. Wheat plants (variety Yuma) were grown from seed in a greenhouse in 50% mineral soil/50% soil-less Metro mix until the first leaf was fully emerged, with 7-10 seedlings per pot. These plants were inoculated with an aqueous spore suspension of Septoria tritici either prior to or after fungicide treatments. After inoculation the plants were kept in 100% relative humidity (one day in a dark dew chamber followed by two to three days in a lighted dew chamber at 20° C.) to permit spores to germinate and infect the leaf. The plants were then transferred to a greenhouse set at 20° C. for disease to develop. When disease symptoms were fully expressed on the l^st leaves of untreated plants, infection levels were assessed on a scale of 0 to 100 percent disease severity. Percent disease control was calculated using the ratio of disease severity on treated plants relative to untreated plants. Evaluation of Fungicidal Activity: Powdery Mildew of Cucumber (Erysiphe cichoracearum; Bayer Code […]) Cucumber seedlings (variety Bush Pickle) were grown in soil-less Metro mix, with one plant per pot, and used in the test when 12 to 14 days old. Plants were inoculated with a spore suspension 24 hr following fungicide treatments. After inoculation the plants remained in the greenhouse set at 20° C. until disease was fully expressed. Fungicide formulation, application and disease assessment on the sprayed leaves followed the procedures as described in the Example A.

Rhyncosporium secalis = test: Barley scald (RHYNSE) disease control; conditions: Hordeum vulgare, 24 h, 1 Day Protectant, read-out: RHYNSE disease control rating
Method: Technical grades of materials were dissolved in acetone, which were then mixed with nine volumes of water containing 110 ppm Triton X-100. The fungicide solutions were applied onto wheat seedlings using an automated booth sprayer to run-off. All sprayed plants were allowed to air dry prior to further handling. All fungicides were evaluated using the aforementioned method for their activity vs. all target diseases. Wheat leaf blotch and brown rust activity were also evaluated using track spray applications, in which case the fungicides were formulated as EC formulations, containing 0.1% Trycol 5941 in the spray solutions. Wheat plants (variety Yuma) were grown from seed in a greenhouse in 50% mineral soil/50% soil-less Metro mix until the first leaf was fully emerged, with 7-10 seedlings per pot. These plants were inoculated with an aqueous spore suspension of Septoria tritici either prior to or after fungicide treatments. After inoculation the plants were kept in 100% relative humidity (one day in a dark dew chamber followed by two to three days in a lighted dew chamber at 20° C.) to permit spores to germinate and infect the leaf. The plants were then transferred to a greenhouse set at 20° C. for disease to develop. When disease symptoms were fully expressed on the l^st leaves of untreated plants, infection levels were assessed on a scale of 0 to 100 percent disease severity. Percent disease control was calculated using the ratio of disease severity on treated plants relative to untreated plants. Evaluation of Fungicidal Activity: Barley Scald (Rhyncosporium secalis; Bayer code […]) Barley seedlings (variety Harrington) were propagated in soil-less Metro mix, with each pot having 8 to 12 plants, and used in the test when first leaf was fully emerged. Test plants were inoculated by an aqueous spore suspension of Rhyncosporium secalis 24 hr after fungicide treatments. After inoculation the plants were kept in a dew room at 20° C. with 100% relative humidity for 48 hr. The plants were then transferred to a greenhouse set at 20° C. for disease to develop. Fungicide formulation, application and disease assessment on the sprayed leaves followed the procedures as described in the Example A.

[1] = test system: Glomerella lagenarium; Anamorph: Colletotrichum lagenarium; test: Cucumber anthracnose (COLLLA) disease control; conditions: Colletotrichum orbiculare, 24 h, 1 Day Protectant, read-out: COLLLA disease control rating
Method: Technical grades of materials were dissolved in acetone, which were then mixed with nine volumes of water containing 110 ppm Triton X-100. The fungicide solutions were applied onto wheat seedlings using an automated booth sprayer to run-off. All sprayed plants were allowed to air dry prior to further handling. All fungicides were evaluated using the aforementioned method for their activity vs. all target diseases. Wheat leaf blotch and brown rust activity were also evaluated using track spray applications, in which case the fungicides were formulated as EC formulations, containing 0.1% Trycol 5941 in the spray solutions. Wheat plants (variety Yuma) were grown from seed in a greenhouse in 50% mineral soil/50% soil-less Metro mix until the first leaf was fully emerged, with 7-10 seedlings per pot. These plants were inoculated with an aqueous spore suspension of Septoria tritici either prior to or after fungicide treatments. After inoculation the plants were kept in 100% relative humidity (one day in a dark dew chamber followed by two to three days in a lighted dew chamber at 20° C.) to permit spores to germinate and infect the leaf. The plants were then transferred to a greenhouse set at 20° C. for disease to develop. When disease symptoms were fully expressed on the l^st leaves of untreated plants, infection levels were assessed on a scale of 0 to 100 percent disease severity. Percent disease control was calculated using the ratio of disease severity on treated plants relative to untreated plants. Evaluation of Fungicidal Activity: Cucumber Anthracnose (Glomerella lagenarium; Anamorph: Colletotrichum lagenarium; Bayer Code COLLLA) Cucumber seedlings (variety Bush Pickle) were propagated in soil-less Metro mix, with each pot having one plant, and used in the test when 12 to 14 days old. Test plants were inoculated with an aqueous spore suspension of Colletotrichum lagenarium 24 hr after fungicide treatments. After inoculation the plants were kept in a dew room at 22° C. with 100% relative humidity for 48 hr to permit spores to germinate and infect the leaf. The plants were then transferred to a growth room set at 22° C. for disease to develop. Fungicide formulation, application and disease assessment on the sprayed leaves followed the procedures as described in the Example A.

Row | SMILES | pest or weed control at 100 ppm (Erysiphe cichoracearum) | pest or weed control at 100 ppm (Rhyncosporium secalis) | pest or weed control at 100 ppm [1]
1 | CCCO[C@H]1CCC[C@H](NC(=O)c2nccc(OC)c2OCOC(C)=O)C(=O)O[C@@H](C)[C@@H]1CCC(C)C [Compound 25, ((2-(((3S,7S,8S,9S)-8-isopentyl-9-methyl-2-oxo-7-propoxyoxonan-3-yl)carbamoyl)-4-methoxypyridin-3-yl)oxy)methyl acetate] | < 70% | > 70% | > 70%
2 | CCCC[C@H]1[C@H](C)OC(=O)[C@@H](NC(=O)c2nccc(OC)c2OCOC(C)=O)CCC[C@@H]1Oc1ccccc1 [Compound 33] | > 70% | > 70% | > 70%
3 | COc1ccnc(C(=O)N[C@H]2CCC[C@H](Oc3ccccc3)[C@@H](CCC(C)C)[C@H](C)OC2=O)c1OC(C)=O [Compound 36] | > 70% | > 70% | > 70%
4 | COc1ccnc(C(=O)N[C@H]2CCC[C@H](Oc3ccccc3)[C@@H](CCC(C)C)[C@H](C)OC2=O)c1OCOC(C)=O [Compound 40] | > 70% | > 70% | > 70%
5 | COc1ccnc(C(=O)N[C@H]2CCC[C@H](OCC3CC3)[C@@H](Cc3ccc(F)cc3)[C@H](C)OC2=O)c1OCOC(C)=O [Compound 61] | < 70% | > 70% | > 70%
6 | CCCO[C@H]1CCC[C@H](NC(=O)c2nccc(OC)c2OC(C)=O)C(=O)O[C@@H](C)[C@@H]1Cc1ccccc1 [Compound 70] | < 70% | > 70% | > 70%
7 | CCCC[C@H]1[C@H](C)OC(=O)[C@@H](NC(=O)c2nccc(OC)c2OCOC(C)=O)CCC[C@@H]1OCC1CC1 [Compound 73] | < 70% | > 70% | > 70%
8 | CCCO[C@H]1CCC[C@H](NC(=O)c2nccc(OC)c2OC(C)=O)C(=O)O[C@@H](C)[C@@H]1CCC(C)C [Compound 74, 2-(((3S,7S,8S,9S)-8-isopentyl-9-methyl-2-oxo-7-propoxyoxonan-3-yl)carbamoyl)-4-methoxypyridin-3-yl acetate] | > 70% | > 70% | > 70%
